In ChEMBL document CHEMBL5375956, “Discovery of Pyrazolo[1,5-a]pyrimidine Derivative as a Novel and Selective ALKBH5 Inhibitor for the Treatment of AML” (J Med Chem, 2023) one finds Kd, Activity and inhibition in vivo data, which are given here for one compound.

Series [1] has as its target RNA demethylase ALKBH5 (Homo sapiens, UniProt Q6P6C2). The series can be described thus: Binding affinity to biotinylated ALKBH5 (66 to 292 residues)(unknown origin) expressed in Escherichia coli BL21(DE3) assessed as equilibrium dissociation constant by BLI assay.
The test system of series [2] is HUVEC. The series can be described thus: Effect on TACC3 mRNA level in HUVEC cells at 5 to 10 uM incubated for 48 hrs by qRT-PCR analysis. The following applies: Homo sapiens, dose 5-10 µM. The format is functional, cell-based.
The subject of series [3] is MV4-11. Briefly: Antitumor activity against human MV4-11 cells xenografted in nude mouse assessed as tumor growth inhibition at 10 mg/kg, ip treated every day for 14 days relative to control. The format is functional. The following applies: MV4-11, 336 h, time 14 day, read-out: TGI.
Series [4] in a line: Toxicity in nude mouse xenografted with human MV4-11 cells assessed as kidney damage at 10 to 40 mg/kg, ip treated every day for 14 days by H and E staining based analysis. The following applies: in vivo, 336 h, dose 10-40 mg/kg, time 14 day. Format: organism-based.

SMILES strings stand for the structures. Calls of active or inactive are those of the source. No cut-off for these calls is given here.

Sequence of RNA demethylase ALKBH5 (Q6P6C2 whole entry, the tested form may be a part): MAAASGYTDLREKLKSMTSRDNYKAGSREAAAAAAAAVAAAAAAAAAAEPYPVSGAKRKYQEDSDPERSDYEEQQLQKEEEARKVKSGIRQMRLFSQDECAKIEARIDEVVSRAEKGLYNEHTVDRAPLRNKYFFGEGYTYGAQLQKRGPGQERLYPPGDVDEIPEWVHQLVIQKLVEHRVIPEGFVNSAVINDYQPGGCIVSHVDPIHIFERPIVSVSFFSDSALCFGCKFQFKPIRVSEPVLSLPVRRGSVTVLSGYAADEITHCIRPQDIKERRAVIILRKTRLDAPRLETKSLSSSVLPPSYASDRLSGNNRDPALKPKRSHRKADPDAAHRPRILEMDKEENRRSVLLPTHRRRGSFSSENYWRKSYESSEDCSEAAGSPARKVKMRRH

Turning to `O=C(OCc1ccc(C(F)(F)F)cc1)c1ccc(-c2cc3ncc(C(=O)c4c(O)ccc([N+](=O)[O-])c4O)cn3n2)cc1`, in series [1], the Kd was 6.62 µM. The result in series [2] was inactive. In series [3], the inhibition in vivo at 10 mg/kg turned out to be 56.3%. Further, the Activity entry in series [4] is on record as “Non-Toxic”.
